Eight compounds from US20130165450A1, “Novel Thiazol-Carboximide Derivatives as PDK1 Inhibitors” (priority 2010, published 2013) can be followed below.

SMILES strings stand for the structures.

The target in the assay is T1, recombinant human PDK1 (amino acids 51-556) (Homo sapiens, UniProt O15530).
T1 construct: containing amino acids 51-556 of the human PDK1 enzyme; made in house
T1 sequence (O15530 51-556): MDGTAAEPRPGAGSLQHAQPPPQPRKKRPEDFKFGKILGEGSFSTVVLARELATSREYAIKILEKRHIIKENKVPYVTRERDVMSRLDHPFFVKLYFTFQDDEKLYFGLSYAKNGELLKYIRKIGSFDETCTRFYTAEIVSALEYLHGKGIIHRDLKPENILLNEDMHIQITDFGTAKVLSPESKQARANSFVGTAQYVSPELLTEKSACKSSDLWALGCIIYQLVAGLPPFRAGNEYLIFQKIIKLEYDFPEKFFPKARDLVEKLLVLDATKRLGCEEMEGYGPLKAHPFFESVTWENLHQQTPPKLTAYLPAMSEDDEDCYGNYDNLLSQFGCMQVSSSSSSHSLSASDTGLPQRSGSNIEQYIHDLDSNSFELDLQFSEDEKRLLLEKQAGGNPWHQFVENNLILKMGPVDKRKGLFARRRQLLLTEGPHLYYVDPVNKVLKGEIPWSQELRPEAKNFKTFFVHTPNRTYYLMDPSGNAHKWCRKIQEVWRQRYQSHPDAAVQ
The experiment in a line: PDK1 IMAP fluorescence polarization kinase assay. In kind it is biochemical. Particulars: 10 nM PDK1, 100 nM peptide substrate, 100 nM PIFtide, 2.5 uM ATP, 1.5 hours; rated A-D.

For `N[C@@H]1CCCN(c2c(F)cccc2NC(=O)c2csc(-c3cnn(CCCOc4ccccc4)c3)n2)C1` [Compound 43, N-[2-(3(R)-amino-1-piperidinyl)-3-fluorophenyl]-2-[1-(3-phenoxypropyl)-1H-pyrazol-4-yl]-4-thiazolecarboxamide], the IC50 was above 1 µM. For `COC(=O)c1cccc(F)c1Cn1cc(-c2nc(C(=O)Nc3cccc(F)c3N3CCC[C@@H](N)C3)cs2)cn1` [Compound 45, methyl 2-[[4-[4-[[[2-(3(R)-amino-1-piperidinyl)-3-fluorophenyl]amino]carbonyl]-2-thiazolyl]-1H-pyrazol-1-yl]methyl]-3-fluorobenzoate], the IC50 lay within 0.251 to 1 µM.

Regarding `N[C@@H]1CCCN(c2c(F)cccc2NC(=O)c2csc(-c3cnn(Cc4c(F)cccc4CO)c3)n2)C1` [Compound 46, N-[2-(3(R)-amino-1-piperidinyl)-3-fluorophenyl]-2-[1-[[2-fluoro-6-(hydroxymethyl)phenyl]methyl]-1H-pyrazol-4-yl]-4-thiazolecarboxamide], the IC50 was in the range of 0.051 to 0.25 µM.

With `N[C@@H]1CCCN(c2c(F)cccc2NC(=O)c2csc(-c3cnn(CC4CCNCC4)c3)n2)C1` [Compound 47, N-[2-(3(R)-amino-1-piperidinyl)-3-fluorophenyl]-2-[1-(4-piperidinylmethyl)-1H-pyrazol-4-yl]-4-thiazolecarboxamide], the IC50 was above 1 µM. Then `N[C@@H]1CCCN(c2c(F)cccc2NC(=O)c2csc(-c3cnn(Cc4ccccc4Br)c3)n2)C1` [Compound 49, N-[2-(3(R)-amino-1-piperidinyl)-3-fluorophenyl]-2-[1-[(2-bromophenyl)methyl]-1H-pyrazol-4-yl]-4-thiazolecarboxamide], with 0.251 to 1 µM. For `N[C@@H]1CCCN(c2c(F)cccc2NC(=O)c2csc(-c3cnn(Cc4ccccc4-c4cn[nH]c4)c3)n2)C1` [Compound 50, N-[2-(3(R)-amino-1-piperidinyl)-3-fluorophenyl]-2-[1-[[2-(1h-pyrazol-4-yl)phenyl]methyl]-1H-pyrazol-4-yl]-4-thiazolecarboxamide], the IC50 is above 1 µM. On to `NCc1ccccc1Cn1cc(-c2nc(C(=O)Nc3cccc(F)c3N3CCC[C@@H](N)C3)cs2)cn1` [Compound 51, 2-[1-[[2-(aminomethyl)phenyl]methyl]-1H-pyrazol-4-yl]-N-[2-(3(R)-amino-1-piperidinyl)-3-fluorophenyl]-4-thiazolecarboxamide], for which the IC50 lay within 0.251 to 1 µM. As for `N[C@@H]1CCCN(c2c(F)cccc2NC(=O)c2csc(-c3cnn(Cc4cccc(F)c4F)c3)n2)C1` [Compound 52, N-[2-(3(R)-amino-1-piperidinyl)-3-fluorophenyl]-2-[1-[(2,3-difluorophenyl)methyl]-1H-pyrazol-4-yl]-4-thiazolecarboxamide], the IC50 fell in the range of 0.051 to 0.25 µM.

Broadly, the IC50 is the concentration that inhibits the measured activity by half.
